{"source": "patent US10604509B2", "about": "“Nrf2 regulators” (GlaxoSmithKline Intellectual Property Development Limited, priority 2015, dated 2020)", "key": {"rats [1]": {"test_system": "rats", "settings": "cerebral ischemia-reperfusion model; cited from earlier work"}, "mice": {"test_system": "mice", "settings": "NRF2 wild-type and KO mice after administration; cited from earlier work"}, "rats [2]": {"test_system": "rats", "settings": "rats on a choline-deficient L-amino acid-defined diet; cited from earlier work"}, "[3]": {"test_system": "COPD macrophages and alveolar macrophages from cigarette smoke-exposed mice", "settings": "cited from earlier work"}, "[4]": {"test_system": "NQO1 specific enzyme activity in BEAS-2B cells", "assay": "BEAS-2B NQO1 MTT assay", "assay_type": "cell-based", "settings": "BEAS-2B cells, 48 hours with compound, MTT readout, read-out: EC50 of NQO1 specific activity induction", "procedure,_shortened": "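BEAS-2B cells treated with compound 48 h at 37° C, 5% CO2, then lysed; NQO1 activity in lysate measured kinetically by MTT cocktail at Absorbance 570 nm over 30 min. EC50 for induction from Delta OD/min versus log concentration, 3-parameter fit; Cell Titer Glo run on lysate aliquot.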"}}, "note": "Structures can show the parent of a compound that is named as a salt. Where two headings read alike, the source gives them in different places."}
{"smiles": "CC(C)(C)c1cc(O)ccc1O", "note": "[tert-butylhydroquinone (tBHQ), tert-butylhydroquinone]", "values": [{"measurement": "cortical damage", "setting": "rats [1]", "result": "reduced cortical damage"}, {"measurement": "cortical glutathione levels", "setting": "mice", "result": "increased in NRF2 wild-type but not KO mice"}]}
{"smiles": "O=C(NCc1ccccn1)Nc1nnc(-c2ccco2)o1", "note": "[NK-252]", "values": [{"measurement": "progression of histologic abnormalities, especially hepatic fibrosis", "setting": "rats [2]", "result": "significantly attenuated progression of histologic abnormalities"}]}
{"smiles": "C[S+]([O-])CCCCN=C=S", "note": "(stereo not shown) [Sulforaphane]", "values": [{"measurement": "expression of Macrophage Receptor with Collagenous structure (MARCO)", "setting": "[3]; COPD macrophages and alveolar macrophages from cigarette smoke-exposed mice", "result": "increases the expression of Macrophage Receptor with Collagenous structure (MARCO)"}, {"measurement": "bacterial phagocytosis and bacterial clearance", "setting": "[3]; Pseudomonas aeruginosa, non-typable Haemophilus influenzae, ex vivo and in vivo", "result": "improving in these cells bacterial phagocytosis"}]}
{"smiles": "Cc1c(-c2cnccn2)ssc1=S", "note": "[oltipraz]", "values": [{"measurement": "progression of histologic abnormalities, especially hepatic fibrosis", "setting": "rats [2]", "result": "significantly attenuated progression of histologic abnormalities"}]}
{"smiles": "Cc1ccc([C@@H](CC(=O)O)c2ccc3c(nnn3C)c2C)cc1CN1Cc2ccccc2OC(C)(C)C1", "note": "[Example 110, (R)-3-(1,4-dimethyl-1H-benzo[d][1,2,3]triazol-5-yl)-3-(3-((2,2-dimethyl-2,3-dihydrobenzo[f][1,4]oxazepin-4(5H)-yl)methyl)-4-methylphenyl)propanoic Acid, Formic Acid Salt]", "values": [{"measurement": "EC50", "setting": "[4]; Homo sapiens, BEAS-2B, 48 h", "result": "< 1", "unit": "nM"}]}
{"smiles": "CCC1CCN(Cc2nccn2Cc2cc([C@@H](c3ccc4c(nnn4C)c3C)C(C)(C)C(=O)O)ccc2C)CC1", "note": "[Example 122, (S)-3-(1,4-Dimethyl-1H-benzo[d][1,2,3]triazol-5-yl)-3-(3-((2-((4-ethylpiperidin-1-yl)methyl)-1H-imidazol-1-yl)methyl)-4-methylphenyl)-2,2-dimethylpropanoate, Sodium salt]", "values": [{"measurement": "EC50", "setting": "[4]; Homo sapiens, BEAS-2B, 48 h", "result": "10 to 100", "unit": "nM"}]}
{"smiles": "CCC1CCN(Cc2nccn2Cc2cc(C(CCc3cn(CC)nn3)C(C)(C)C(=O)O)ccc2Cl)CC1", "note": "(stereo not shown) [Example 230, 3-(4-Chloro-3-((2-((4-ethylpiperidin-1-yl)methyl)-1H-imidazol-1-yl)methyl)phenyl)-5-(1-ethyl-1H-1,2,3-triazol-4-yl)-2,2-dimethylpentanoic Acid]", "values": [{"measurement": "EC50", "setting": "[4]; Homo sapiens, BEAS-2B, 48 h", "result": "1 to 10", "unit": "nM"}]}
{"smiles": "Cc1ccc(C(c2ccc3c(nnn3C)c2C)C(C)(C)C(=O)O)cc1CN1Cc2cnccc2OC(C)(C)C1", "note": "(stereo not shown) [Example 22, 3-(1,4-Dimethyl-1H-benzo[d][1,2,3]triazol-5-yl)-3-(3-((2,2-dimethyl-2,3-dihydropyrido[3,4-f][1,4]oxazepin-4(5H)-yl)methyl)-4-methylphenyl)-2,2-dimethylpropanoic Acid, Trifluoroacetic Acid]", "values": [{"measurement": "EC50", "setting": "[4]; Homo sapiens, BEAS-2B, 48 h", "result": "1 to 10", "unit": "nM"}]}
{"smiles": "CC[C@@H]1CN(Cc2cc([C@@H](c3ccc4c(nnn4C)c3C)C(C)(C)C(=O)O)ccc2C)Cc2ccncc2O1", "note": "[Example 219, (S)-3-(1,4-Dimethyl-1H-benzo[d][1,2,3]triazol-5-yl)-3-(3-(((R)-2-ethyl-2,3-dihydropyrido[4,3-f][1,4]oxazepin-4(5H)-yl)methyl)-4-methylphenyl)-2,2-dimethylpropanoic Acid, Trifluoroacetate]", "values": [{"measurement": "EC50", "setting": "[4]; Homo sapiens, BEAS-2B, 48 h", "result": "1 to 10", "unit": "nM"}]}
{"smiles": "Cc1ccc([C@@H](CC(=O)O)c2ccc3c(nnn3C)c2C)cc1CN1CCCC(n2cccn2)C1", "note": "(single isomer, unassigned; isomer 1) [Example 157]", "values": [{"measurement": "EC50", "setting": "[4]", "result": "100 to 1000", "unit": "nM"}]}
{"smiles": "CCC1Cc2ccccc2CN(Cc2cc(C(CC(=O)O)c3ccc4c(nnn4C)c3C)ccc2C)C1", "note": "(stereo not shown) [Example 106, 3-(1,4-Dimethyl-1H-benzo[d][1,2,3]triazol-5-yl)-3-(3-((4-ethyl-4,5-dihydro-1H-benzo[c]azepin-2(3H)-yl)methyl)-4-methylphenyl)propanoic Acid]", "values": [{"measurement": "EC50", "setting": "[4]; Homo sapiens, BEAS-2B, 48 h", "result": "100 to 1000", "unit": "nM"}]}
{"smiles": "CC[C@@H]1CN(Cc2cc([C@@H](c3ccc4c(nnn4C)c3C)C(C)(C)C(=O)OCOC(=O)C(C)(C)C)ccc2C)Cc2cnccc2O1", "note": "[Example 253, (S)-(Pivaloyloxy)methyl 3-(1,4-dimethyl-1H-benzo[d][1,2,3]triazol-5-yl)-3-(3-(((R)-2-ethyl-2,3-dihydropyrido[3,4-f][1,4]oxazepin-4(5H)-yl)methyl)-4-methylphenyl)-2,2-dimethylpropanoate]", "values": [{"measurement": "EC50", "setting": "[4]; Homo sapiens, BEAS-2B, 48 h", "result": "< 1", "unit": "nM"}]}
{"smiles": "CC[C@@H]1CN(Cc2cc(C(CC(=O)O)c3ccc4c(nnn4C)c3C)ccc2C)Cc2ccc(F)cc2O1", "note": "(stereo partly drawn) [Example 75, 3-(1,4-Dimethyl-1H-benzo[d][1,2,3]triazol-5-yl)-3-(3-(((R)-2-ethyl-8-fluoro-2,3-dihydrobenzo[f][1,4]oxazepin-4(5H)-yl)methyl)-4-methylphenyl)propanoic Acid, Formic Acid Salt]", "values": [{"measurement": "EC50", "setting": "[4]; Homo sapiens, BEAS-2B, 48 h", "result": "100 to 1000", "unit": "nM"}]}
{"smiles": "CC[C@@H]1CN(Cc2cc([C@@H](c3ccc4c(nnn4C)c3C)C(C)(C)C(=O)O)ccc2C)Cc2c(ccnc2F)O1", "note": "[Example 222, (S)-3-(1,4-Dimethyl-1H-benzo[d][1,2,3]triazol-5-yl)-3-(3-(((R)-2-ethyl-6-fluoro-2,3-dihydropyrido[3,4-f][1,4]oxazepin-4(5H)-yl)methyl)-4-methylphenyl)-2,2-dimethylpropanoic Acid]", "values": [{"measurement": "EC50", "setting": "[4]; Homo sapiens, BEAS-2B, 48 h", "result": "< 1", "unit": "nM"}]}
{"smiles": "CC[C@@H]1CN(Cc2cc(C(CC(=O)O)c3cc(OC)c4c(nnn4C)c3C)ccc2C)Cc2ccccc2O1", "note": "(stereo partly drawn) [Example 45, 3-(3-(((R)-2-Ethyl-2,3-dihydrobenzo[f][1,4]oxazepin-4(5H)-yl)methyl)-4-methylphenyl)-3-(7-methoxy-1,4-dimethyl-1H-benzo[d][1,2,3]triazol-5-yl)propanoic Acid, Formic Acid Salt]", "values": [{"measurement": "EC50", "setting": "[4]; Homo sapiens, BEAS-2B, 48 h", "result": "100 to 1000", "unit": "nM"}]}
{"smiles": "CCCn1cc(CCC(CC(=O)O)c2ccc(C)c(CN3CCCC(n4cccn4)C3)c2)nn1", "note": "(stereo not shown) [Example 163, 3-(3-((3-(1H-pyrazol-1-yl)piperidin-1-yl)methyl)-4-methylphenyl)-5-(1-propyl-1H-1,2,3-triazol-4-yl)pentanoic Acid, Formic Acid Salt]", "values": [{"measurement": "EC50", "setting": "[4]; Homo sapiens, BEAS-2B, 48 h", "result": "1000 to 10000", "unit": "nM"}]}
{"smiles": "Cc1ccc(C2(C)CN(Cc3cc(C(CC(=O)O)c4ccc5c(nnn5C)c4C)ccc3C)CCO2)cc1", "note": "(stereo not shown) [Example 18, 3-(1,4-Dimethyl-1H-benzo[d][1,2,3]triazol-5-yl)-3-(4-methyl-3-((2-methyl-2-(p-tolyl)morpholino)methyl)phenyl)propanoic Acid, Formic Acid Salt]", "values": [{"measurement": "EC50", "setting": "[4]; Homo sapiens, BEAS-2B, 48 h", "result": "1000 to 10000", "unit": "nM"}]}
